{
  "source": "patent US8173673B2",
  "about": "“Biofilm-inhibiting effect and anti-infective activity of N,C-linked aryl isoquinolines and the use thereof” (Julius-Maximilians-Universitaet Wuerzburg, priority 2006, dated 2012)",
  "key": {"S. epidermidis RP62A": {"test_system": "S. epidermidis RP62A", "experiment": "Biofilm test on polystyrene surfaces (crystal violet)", "format": "cell-based, Staphylococcus epidermidis", "settings": "drug concentration of 0.63 μM", "experimental": "Determination of the Formation of Biofilms of Staphylococci on Polystyrene-Surfaces (Biofilm Test)\nFor determining the effect of a test compound on the formation of biofilms of staphylococci, the biofilm-reference strain S. epidermidis RP62A is inoculated in trypticase-soy-broth (TSB) with a common 0.25% (w/v) glucose concentration (standard-TSB), and grown over night at 37° C. in a shaking incubator until the stationary growth phase. On the next day, the cultures are diluted 1:100 with fresh TSB, and 100 μl of this germ suspension are pipetted into the wells of a 96-well-polystyrol-tissue culture plate with flat bottom (Greiner, Nürtingen, Germany). In the meantime, also a geometric series of dilutions of the test substance is produced in TSB, and also 100 μl of each of these dilutions are added to the den germ suspensions. The plates were incubated at 37° C. in an incubator for 18 hours at 37° C. On the next day, first the growth of the cultures is checked through determining of the optical density at 550 nm by means of an ELISA-reader (see also at MIC-determination), and documented. Then, the cultures are carefully poured out of the wells, and the plates were washed three times with phosphate-buffered saline solution (PBS), in order to remove non-adherent bacteria. […] After drying, the density of the adherent biofilm is determined with an ELISA-reader at a wavelength of 490 nm."}, "[1]": {"test_system": "293 kidney epithelial cells", "experiment": "Cytotoxicity by the Alamar-Blue assay", "format": "cell-based", "experimental": "Determination of the Cytotoxicity by the Alamar-Blue®-Assay with the Example of Substance A\nThe cytotoxicity of A was determined by means of an Alamar-Blue®-assay. First, a geometric series of dilutions of A in cellular medium (293 kidney epithelial cells; without phenol red) with 1% DMSO was produced, and in a 96-well-polystyrol-flat bottom-microtiter plate vorgelegt. The cells were trypsinized, and washed once. For the test, a cellular suspension of 10^5 cells/ml was prepared, and 20 μl thereof were pipetted into the wells. The final volume was 200 μl. After 24 h incubation at 37° C. and 5% CO2, 20 μl Alamar Blue (Trinova Biochem, Gieβen, Germany) was added into each well, and the microtiter plate was incubated further. The wells that contained the medium and substance, as well as those that only contained cellular suspension (without substance), served as negative or positive control, respectively. The optical density was measured after 24 h and 48 h with an ELISA-reader at the wavelengths 550 nm and 630 nm. The IC50 value for A was calculated following linear interpolation (W. Huber, J. C. Koella Acta Tropica 1993, 55, 257-261)."}, "[2]": {"test_system": "Staphylococcus epidermidis RP62A", "experiment": "MIC, micro-bouillon-dilution method", "format": "cell-based", "settings": "18 hours at 37° C.", "description": "(§1) Examination of the Inhibitory Effect Through Determining of the Minimal Inhibitory Concentration (MIC) in the Micro-Bouillon-Dilution Methods\n(§2) In this method, a series of dilutions with decreasing concentrations of drug is produced in 96-well-microtiter plates from a stock solution of the compound. The drug-containing microtiter plate-wells are inoculated with a defined amount of the pathogen to be tested, and cultivated. The concentration of the compound in the well, where no more turbidity of the medium due to a growth of the pathogens could be optically detected is given as the MIC.\n(§3) The test strains were inoculated in Luria-Bertani-medium, and grown over night in a shaking incubator at 37° C. until stationary growth phase. On the following day, the culture was diluted 1:100 with fresh Müller-Hinton-bouillon (MH-Medium) containing 5% NaCl (w/v), and until logarithmic growth phase incubated again at 37° C. inkubiert. The optical density of the bacterial suspension was photometrically measured at 550 nm, and the suspension adjusted at 2×10^5 colony forming units/ml (CFU/ml). In the meantime, a geometric series of dilutions of the test compounds was produced in MH-medium. 100 μl of each dilution were pipetted into the corresponding wells of a 96-well-polystyrene-flat bottom-microtiter plate. The plates were inoculated with 100 μl of the pre-prepared inoculum, and cultured in the incubator for 18 hours at 37° C. On the following day, the optical density of the bacterial cultures in the wells was determined with an ELISA-reader at a wavelength of 550 nm, compared to the blank value (=non-inoculated MH-medium). The concentrations of the compound in the last wells, wherein no more growth of the pathogens could be detected, is given as the MIC. A low MIC indicates a high inhibitory activity of a compound, whereas a high concentration indicates a low activity.\n(§4) The MIC of, for example, A was tested for the following germs and strains: • Staphylococcus aureus 325: Biofilm-positive clinical isolate from blood culture, wild type • Staphylococcus aureus NCTC 8325: Biofilm-negative reference strain, genome published • Staphylococcus epidermidis RP62A: Biofilm-positive, multi resistant reference strain • Escherichia coli 536: urinary tract isolate, reference strain • Pseudomonas aeruginosa: environmental isolate • Candida albicans 5314: clinical isolate"}, "Candida albicans 5314": {"test_system": "Candida albicans 5314", "experiment": "MIC, micro-bouillon-dilution method", "format": "cell-based", "settings": "Candida albicans 5314, 18 hours at 37° C.", "description": "as §1, §2, §3, §4"}, "Escherichia coli 536": {"test_system": "Escherichia coli 536", "experiment": "MIC, micro-bouillon-dilution method", "format": "cell-based", "settings": "Escherichia coli 536, 18 hours at 37° C.", "description": "as §1, §2, §3, §4"}, "[3]": {"test_system": "Staphylococcus aureus 325", "experiment": "MIC, micro-bouillon-dilution method", "format": "cell-based", "settings": "Staphylococcus aureus 325, 18 hours at 37° C.", "description": "as §1, §2, §3, §4"}, "Pseudomonas aeruginosa": {"test_system": "Pseudomonas aeruginosa", "experiment": "MIC, micro-bouillon-dilution method", "format": "cell-based", "description": "as §1, §2, §3, §4"}, "[4]": {"test_system": "Staphylococcus aureus NCTC 8325", "experiment": "MIC, micro-bouillon-dilution method", "format": "cell-based", "settings": "Staphylococcus aureus NCTC 8325, 18 hours at 37° C.", "description": "as §1, §2, §3, §4"}},
  "note": "Structures can show the parent of a compound that is named as a salt.",
  "data": [
    {"smiles": "COc1cc(OC)c2c(C)[n+](-c3ccc(-c4ccc(-[n+]5c(C)cc6cc(OC)cc(OC)c6c5C)cc4)cc3)c(C)cc2c1", "note": "[A, N,N′-(1,1′-benzidine)-di-(6,8-dimethoxy-1,3-dimethylisoquinolinium)-salt]", "values": [
      {"measurement": "reduction of the formation of biofilms compared to a control without the substance", "setting": "S. epidermidis RP62A", "result": "about 90%"},
      {"measurement": "IC50", "setting": "[1]", "result": 42.4, "unit": "µM"},
      {"measurement": "Minimal inhibitory concentrations", "setting": "[2]", "result": 0.63, "unit": "µM"},
      {"measurement": "Minimal inhibitory concentrations", "setting": "Candida albicans 5314", "result": 1.25, "unit": "µM"},
      {"measurement": "Minimal inhibitory concentrations", "setting": "Escherichia coli 536", "result": 20.00, "unit": "µM"},
      {"measurement": "Minimal inhibitory concentrations", "setting": "[3]", "result": 0.63, "unit": "µM"},
      {"measurement": "Minimal inhibitory concentrations", "setting": "Pseudomonas aeruginosa; Pseudomonas aeruginosa, 18 hours at 37° C.", "result": ">160", "unit": "µM"},
      {"measurement": "growth-inhibiting effect", "setting": "Pseudomonas aeruginosa; pseudomonades, result in words", "result": "fully ineffective"},
      {"measurement": "Minimal inhibitory concentrations", "setting": "[4]", "result": 5.00, "unit": "µM"}
    ]}
  ]
}
